Assay results from ChEMBL document CHEMBL5505992, “Novel membrane-targeting isoxanthohumol-amine conjugates for combating methicillin-resistant Staphylococcus aureus (MRSA) infections” (Eur J Med Chem, 2024).
≈ marks a conversion by molar mass, not a printed value.

Tests used:
[1] = test system: Staphylococcus aureus; experiment: Antibacterial activity against methicillin-resistant Staphylococcus aureus clinical isolate MRSA-20 measured after 16 to 18 hrs by CLSI method; format: functional; conditions: time 16-18 hrs
[2] = test system: Staphylococcus aureus; experiment: Antibacterial activity against methicillin-resistant Staphylococcus aureus clinical isolate MRSA-18 measured after 16 to 18 hrs by CLSI method; format: functional; conditions: time 16-18 hrs
[3] = test system: Staphylococcus aureus; experiment: Antibacterial activity against methicillin-resistant Staphylococcus aureus clinical isolate MRSA-16 measured after 16 to 18 hrs by CLSI method; format: functional; conditions: time 16-18 hrs
[4] = test system: Staphylococcus aureus; experiment: Antibacterial activity against methicillin-resistant Staphylococcus aureus clinical isolate MRSA-23 measured after 16 to 18 hrs by CLSI method; format: functional; conditions: time 16-18 hrs
[5] = test system: Staphylococcus aureus; experiment: Antibacterial activity against methicillin-resistant Staphylococcus aureus clinical isolate MRSA-13 measured after 16 to 18 hrs by CLSI method; format: functional; conditions: time 16-18 hrs
[6] = test system: Staphylococcus aureus; experiment: Antibacterial activity against Staphylococcus aureus ATCC 29213 measured after 16 to 18 hrs by CLSI method; format: functional; conditions: time 16-18 hrs
[7] = test system: Staphylococcus aureus; experiment: Antibacterial activity against methicillin-resistant Staphylococcus aureus clinical isolate MRSA-14 measured after 16 to 18 hrs by CLSI method; format: functional; conditions: time 16-18 hrs
[8] = test system: Staphylococcus aureus; experiment: Antibacterial activity against methicillin-resistant Staphylococcus aureus clinical isolate MRSA-11 measured after 16 to 18 hrs by CLSI method; format: functional; conditions: time 16-18 hrs
[9] = test system: Staphylococcus aureus; experiment: Antibacterial activity against methicillin-resistant Staphylococcus aureus clinical isolate MRSA-17 measured after 16 to 18 hrs by CLSI method; format: functional; conditions: time 16-18 hrs
[10] = test system: Staphylococcus aureus; experiment: Antibacterial activity against methicillin-resistant Staphylococcus aureus clinical isolate MRSA-21 measured after 16 to 18 hrs by CLSI method; format: functional; conditions: time 16-18 hrs
[11] = test system: Staphylococcus aureus; experiment: Antibacterial activity against methicillin-resistant Staphylococcus aureus clinical isolate MRSA-22 measured after 16 to 18 hrs by CLSI method; format: functional; conditions: time 16-18 hrs
[12] = Selectivity index, ratio of HC50 for hemolytic activity in sheep erythrocytes to MIC for antibacterial activity against Staphylococcus aureus ATCC 29213; format: toxicity, cell-based; conditions: read-out: Selectivity Index
[13] = test system: Escherichia coli; experiment: Antibacterial activity against Escherichia coli ATCC25922 measured after 16 to 18 hrs by CLSI method; format: functional; conditions: time 16-18 hrs
[14] = Hemolytic activity in sheep erythrocytes incubated for 1 hr by absorbance based analysis; format: toxicity, cell-based, Ovis aries, Erythrocyte

Row | SMILES | MIC [1] | MIC [2] | MIC [3] | MIC [4] | MIC [5] | MIC [6] | MIC [7] | MIC [8] | MIC [9] | MIC [10] | MIC [11] | selectivity ratio [12] | MIC [13] | HC50 at 1 h [14]
1 | COc1cc(OCCCCCN2CCCC(C)C2)c(CC=C(C)C)c2c1C(=O)CC(c1ccc(OCCCCCN3CCCC(C)C3)cc1)O2 (stereo unspecified) | 8 µg/mL (≈ 11.6 µM) | 8 µg/mL (≈ 11.6 µM) | 8 µg/mL (≈ 11.6 µM) | 8 µg/mL (≈ 11.6 µM) | 8 µg/mL (≈ 11.6 µM) | 16 µg/mL (≈ 23.2 µM) | 8 µg/mL (≈ 11.6 µM) | 8 µg/mL (≈ 11.6 µM) | 8 µg/mL (≈ 11.6 µM) | 4 µg/mL (≈ 5.81 µM) | 8 µg/mL (≈ 11.6 µM) | 13.2 | > 128 µg/mL | 211 µg/mL
2 | COc1cc(OCCCCCN2CCCCC2C)c(CC=C(C)C)c2c1C(=O)CC(c1ccc(OCCCCCN3CCCCC3C)cc1)O2 (stereo unspecified) | 16 µg/mL (≈ 23.2 µM) | 16 µg/mL (≈ 23.2 µM) | 8 µg/mL (≈ 11.6 µM) | 16 µg/mL (≈ 23.2 µM) | 16 µg/mL (≈ 23.2 µM) | 32 µg/mL (≈ 46.4 µM) | 16 µg/mL (≈ 23.2 µM) | 16 µg/mL (≈ 23.2 µM) | 8 µg/mL (≈ 11.6 µM) | 8 µg/mL (≈ 11.6 µM) | 16 µg/mL (≈ 23.2 µM) | 9.1 | > 128 µg/mL | 292 µg/mL
3 | COc1cc(OCCCN2CCOCC2)c(CC=C(C)C)c2c1C(=O)CC(c1ccc(OCCCN3CCOCC3)cc1)O2 (stereo unspecified) | > 128 µg/mL | > 128 µg/mL | > 128 µg/mL | > 128 µg/mL | > 128 µg/mL | > 128 µg/mL | > 128 µg/mL | > 128 µg/mL | > 128 µg/mL | > 128 µg/mL | > 128 µg/mL |  | > 128 µg/mL | > 1280 µg/mL
4 | COc1cc(O)c(CC=C(C)C)c2c1C(=O)CC(c1ccc(O)cc1)O2 (stereo unspecified) [ISOXANTHOHUMOL] | 64 µg/mL (≈ 181 µM) | > 64 µg/mL | 64 µg/mL (≈ 181 µM) | 64 µg/mL (≈ 181 µM) | > 64 µg/mL | > 64 µg/mL | > 64 µg/mL | 64 µg/mL (≈ 181 µM) | > 64 µg/mL | 64 µg/mL (≈ 181 µM) | 64 µg/mL (≈ 181 µM) |  | > 64 µg/mL | > 320 µg/mL
5 | COc1cc(OCCCCN2CCCCC2C)c(CC=C(C)C)c2c1C(=O)CC(c1ccc(OCCCCN3CCCCC3C)cc1)O2 (stereo unspecified) | 32 µg/mL (≈ 48.4 µM) | 32 µg/mL (≈ 48.4 µM) | 32 µg/mL (≈ 48.4 µM) | 32 µg/mL (≈ 48.4 µM) | 32 µg/mL (≈ 48.4 µM) | 32 µg/mL (≈ 48.4 µM) | 16 µg/mL (≈ 24.2 µM) | 8 µg/mL (≈ 12.1 µM) | 16 µg/mL (≈ 24.2 µM) | 32 µg/mL (≈ 48.4 µM) | 16 µg/mL (≈ 24.2 µM) | > 8.6 | > 128 µg/mL | 275 µg/mL
6 | COc1cc(OCCCCCN2CCC(C)CC2)c(CC=C(C)C)c2c1C(=O)CC(c1ccc(OCCCCCN3CCC(C)CC3)cc1)O2 (stereo unspecified) | 8 µg/mL (≈ 11.6 µM) | 8 µg/mL (≈ 11.6 µM) | 4 µg/mL (≈ 5.81 µM) | 8 µg/mL (≈ 11.6 µM) | 8 µg/mL (≈ 11.6 µM) | 8 µg/mL (≈ 11.6 µM) | 8 µg/mL (≈ 11.6 µM) | 4 µg/mL (≈ 5.81 µM) | 8 µg/mL (≈ 11.6 µM) | 4 µg/mL (≈ 5.81 µM) | 8 µg/mL (≈ 11.6 µM) | > 160 | > 128 µg/mL | > 1280 µg/mL
7 | COc1cc(OCCCCCN2CCCCC2)c(CC=C(C)C)c2c1C(=O)CC(c1ccc(OCCCCCN3CCCCC3)cc1)O2 (stereo unspecified) | 8 µg/mL (≈ 12.1 µM) | 8 µg/mL (≈ 12.1 µM) | 8 µg/mL (≈ 12.1 µM) | 8 µg/mL (≈ 12.1 µM) | 8 µg/mL (≈ 12.1 µM) | 8 µg/mL (≈ 12.1 µM) | 8 µg/mL (≈ 12.1 µM) | 8 µg/mL (≈ 12.1 µM) | 4 µg/mL (≈ 6.05 µM) | 8 µg/mL (≈ 12.1 µM) | 8 µg/mL (≈ 12.1 µM) | 18.9 | > 128 µg/mL | 151 µg/mL
8 | COc1cc(OCCCCN2CCOCC2)c(CC=C(C)C)c2c1C(=O)CC(c1ccc(OCCCCN3CCOCC3)cc1)O2 (stereo unspecified) | 32 µg/mL (≈ 50.2 µM) | 32 µg/mL (≈ 50.2 µM) | > 128 µg/mL | 32 µg/mL (≈ 50.2 µM) | 64 µg/mL (≈ 100 µM) | 32 µg/mL (≈ 50.2 µM) | 64 µg/mL (≈ 100 µM) | 64 µg/mL (≈ 100 µM) | 32 µg/mL (≈ 50.2 µM) | 64 µg/mL (≈ 100 µM) | 32 µg/mL (≈ 50.2 µM) | > 20 | > 128 µg/mL | > 640 µg/mL
9 | COc1cc(OCCCN2CCCCC2)c(CC=C(C)C)c2c1C(=O)CC(c1ccc(OCCCN3CCCCC3)cc1)O2 (stereo unspecified) | > 128 µg/mL | > 128 µg/mL | 32 µg/mL (≈ 52.9 µM) | > 128 µg/mL | > 128 µg/mL | 64 µg/mL (≈ 106 µM) | > 128 µg/mL | > 128 µg/mL | > 128 µg/mL | > 128 µg/mL | > 128 µg/mL | 7.3 | > 128 µg/mL | 467 µg/mL
10 | COc1cc(OCCCCN2CCCC(C)C2)c(CC=C(C)C)c2c1C(=O)CC(c1ccc(OCCCCN3CCCC(C)C3)cc1)O2 (stereo unspecified) | 8 µg/mL (≈ 12.1 µM) | 16 µg/mL (≈ 24.2 µM) | 8 µg/mL (≈ 12.1 µM) | 16 µg/mL (≈ 24.2 µM) | 8 µg/mL (≈ 12.1 µM) | 16 µg/mL (≈ 24.2 µM) | 8 µg/mL (≈ 12.1 µM) | 8 µg/mL (≈ 12.1 µM) | 8 µg/mL (≈ 12.1 µM) | 16 µg/mL (≈ 24.2 µM) | 8 µg/mL (≈ 12.1 µM) | > 7.5 | > 128 µg/mL | 120 µg/mL
11 | C[C@@H](O)[C@H]1C(=O)N2C(C(=O)O)=C(S[C@@H]3CN[C@H](C(=O)N(C)C)C3)[C@H](C)[C@H]12 [MEROPENEM] |  |  |  |  |  |  |  |  |  |  |  |  | 0.062 µg/mL (≈ 0.162 µM) | 
12 | COc1cc(OCCCN2CCSCC2)c(CC=C(C)C)c2c1C(=O)CC(c1ccc(OCCCN3CCSCC3)cc1)O2 (stereo unspecified) | > 128 µg/mL | > 128 µg/mL | > 128 µg/mL | > 128 µg/mL | > 128 µg/mL | > 128 µg/mL | > 128 µg/mL | > 128 µg/mL | > 128 µg/mL | > 128 µg/mL | > 128 µg/mL |  | > 128 µg/mL | > 640 µg/mL
13 | COc1cc(OCCCCN(CC(C)C)CC(C)C)c(CC=C(C)C)c2c1C(=O)CC(c1ccc(OCCCCN(CC(C)C)CC(C)C)cc1)O2 (stereo unspecified) | > 128 µg/mL | > 128 µg/mL | > 128 µg/mL | > 128 µg/mL | > 128 µg/mL | > 128 µg/mL | > 128 µg/mL | > 128 µg/mL | > 128 µg/mL | > 128 µg/mL | > 128 µg/mL |  | > 128 µg/mL | > 1280 µg/mL
14 | COc1cc(OCCCCCN(CC(C)C)CC(C)C)c(CC=C(C)C)c2c1C(=O)CC(c1ccc(OCCCCCN(CC(C)C)CC(C)C)cc1)O2 (stereo unspecified) | > 128 µg/mL | > 128 µg/mL | > 128 µg/mL | > 128 µg/mL | > 128 µg/mL | > 128 µg/mL | > 128 µg/mL | > 128 µg/mL | > 128 µg/mL | > 128 µg/mL | > 128 µg/mL |  | > 128 µg/mL | > 1280 µg/mL
15 | COc1cc(OCCCN(CC(C)C)CC(C)C)c(CC=C(C)C)c2c1C(=O)CC(c1ccc(OCCCN(CC(C)C)CC(C)C)cc1)O2 (stereo unspecified) | > 128 µg/mL | > 128 µg/mL | > 128 µg/mL | 32 µg/mL (≈ 46.2 µM) | > 128 µg/mL | > 128 µg/mL | 64 µg/mL (≈ 92.3 µM) | 64 µg/mL (≈ 92.3 µM) | > 128 µg/mL | 32 µg/mL (≈ 46.2 µM) | 32 µg/mL (≈ 46.2 µM) |  | > 128 µg/mL | > 1280 µg/mL
